Measurements reported in ChEMBL document CHEMBL1138960 (Bioorg Med Chem Lett, 2006).
In brackets after ≈: the same amount, converted by molar mass. Activity calls are given as the source filed them. The calls are words filed in the database; no cut-off is given here.

Assays:
[1] = Solubility at pH 2.0; assay type: physicochemical; settings: buffer
[2] = Tmax in rat; assay type: ADME, organism-based; settings: in vivo
[3] = system: HeLa; experiment: Antiproliferative activity against human HeLa cells; assay type: functional, cell-based
[4] = system: Rattus norvegicus; experiment: Conversion of prodrug to parent in rat at 3 mg/kg, iv [100*AUC (JNJ-7706621) / AUC (prodrug)]; assay type: ADME, organism-based; design: dose 3 mg/kg, route intravenous; settings: in vivo
[5] = AUC in rat at 3 mg/kg, iv; assay type: ADME, organism-based; design: dose 3 mg/kg, route intravenous; settings: plasma
[6] = system: HCT-116; experiment: Antiproliferative activity against human HCT116 cells; assay type: functional, cell-based
[7] = Solubility at pH 7.4; assay type: physicochemical; settings: buffer
[8] = molecular target: Cyclin-dependent kinase 2 (Homo sapiens, UniProt P24941); experiment: Inhibition of CDK2
[9] = Half life in rat; assay type: ADME, organism-based; settings: in vivo
[10] = system: A-375; experiment: Antiproliferative activity against human A375 cells; assay type: functional, cell-based
[11] = molecular target: Cyclin-dependent kinase 1 (Homo sapiens, UniProt P06493); experiment: Inhibition of CDK1
Chain of Cyclin-dependent kinase 1 (P06493 whole entry): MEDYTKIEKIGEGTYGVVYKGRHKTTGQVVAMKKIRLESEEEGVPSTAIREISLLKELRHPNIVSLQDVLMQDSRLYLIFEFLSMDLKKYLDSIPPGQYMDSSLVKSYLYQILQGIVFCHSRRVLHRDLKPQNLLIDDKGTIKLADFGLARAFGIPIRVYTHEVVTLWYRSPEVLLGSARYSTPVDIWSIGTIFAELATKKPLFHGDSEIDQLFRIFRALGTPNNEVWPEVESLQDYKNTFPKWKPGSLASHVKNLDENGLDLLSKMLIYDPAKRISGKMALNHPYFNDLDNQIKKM

[12] = system: A-375; experiment: Antitumor activity in human melanoma A375 cell line using tumor xenograft model after 28 days at 100 mg/kg, ip; assay type: functional, organism-based; design: dose 100 mg/kg
[13] = system: Rattus norvegicus; experiment: AUC in rat after administration as its prodrug ethyl 4-(4-(5-amino-1-(2,6-difluorobenzoyl)-1H-1,2,4-triazol-3-ylamino)phenylsulfonamido)-4-oxobutanoate at 3 mg/kg, iv; assay type: ADME, organism-based, Plasma; design: dose 3 mg/kg, route intravenous; settings: in vivo
[14] = system: Rattus norvegicus; experiment: AUC in rat after administration as its prodrug N-(4-(5-amino-1-(2,6-difluorobenzoyl)-1H-1,2,4-triazol-3-ylamino)phenylsulfonyl)-3-morpholinopropanamide at 3 mg/kg, iv; assay type: ADME, organism-based, Plasma; design: dose 3 mg/kg, route intravenous; settings: in vivo
[15] = Oral bioavailability in rat; assay type: ADME, organism-based; settings: in vivo
[16] = system: Rattus norvegicus; experiment: AUC in rat after administration as its prodrug N-(4-(5-amino-1-(2,6-difluorobenzoyl)-1H-1,2,4-triazol-3-ylamino)phenylsulfonyl)-2-(2-methoxyethoxy)acetamide at 3 mg/kg, iv; assay type: ADME, organism-based, Plasma; design: dose 3 mg/kg, route intravenous; settings: in vivo
[17] = system: Rattus norvegicus; experiment: AUC in rat after administration as its prodrug 4-(4-(5-amino-1-(2,6-difluorobenzoyl)-1H-1,2,4-triazol-3-ylamino)phenylsulfonamido)-4-oxobutanoic acid at 3 mg/kg, iv; assay type: ADME, organism-based, Plasma; design: dose 3 mg/kg, route intravenous; settings: in vivo
[18] = system: Rattus norvegicus; experiment: AUC in rat after administration as its prodrug 2-amino-N-(4-(5-amino-1-(2,6-difluorobenzoyl)-1H-1,2,4-triazol-3-ylamino)phenylsulfonyl)acetamide at 3 mg/kg, iv; assay type: ADME, organism-based, Plasma; design: dose 3 mg/kg, route intravenous; settings: in vivo
[19] = system: Rattus norvegicus; experiment: AUC in rat after administration as its prodrug (R)-2-amino-N-(4-(5-amino-1-(2,6-difluorobenzoyl)-1H-1,2,4-triazol-3-ylamino)phenylsulfonyl)-3-hydroxypropanamide at 3 mg/kg, iv; assay type: ADME, organism-based, Plasma; design: dose 3 mg/kg, route intravenous; settings: in vivo
[20] = system: A-375; experiment: Antitumor activity in human melanoma A375 cell line using tumor xenograft model at 100 mg/kg, ip; assay type: functional; settings: A-375, ip, route intraperitoneal, read-out: TGI
[21] = system: Rattus norvegicus; experiment: AUC in rat after administration as its prodrug N-(4-(5-amino-1-(2,6-difluorobenzoyl)-1H-1,2,4-triazol-3-ylamino)phenylsulfonyl)-3-(4-methylpiperazin-1-yl)propanamide at 3 mg/kg, iv; assay type: ADME, organism-based, Plasma; design: dose 3 mg/kg, route intravenous; settings: in vivo
[22] = Oral bioavailability in nude mice; assay type: ADME, organism-based; settings: mouse, in vivo

| solubility [1] [µg/mL] | Tmax [2] [min] | IC50 [3] [µM] | Activity [4] [%] | AUC [5] [µM·h] | IC50 [6] [µM] | solubility [7] [µg/mL] | IC50 [8] [µM] | half-life [9] [min] | IC50 [10] [µM] | Compound | further results |
| --- | --- | --- | --- | --- | --- | --- | --- | --- | --- | --- | --- |
| > 1000 | 4.8 | > 100 | 4 | 23.2 | > 10 | 820 (≈ 1490 µM) | 0.266 | 9.6 | > 100 | CN1CCN(CCC(=O)NS(=O)(=O)c2ccc(Nc3nc(N)n(C(=O)c4c(F)cccc4F)n3)cc2)CC1 |  |
| 440 (≈ 914 µM) | 4.8 | 4.02 | 8 | 8.15 | 71.2 | > 1000 | 0.14 | 9.6 | > 10 | Nc1nc(Nc2ccc(S(=O)(=O)NC(=O)[C@H](N)CO)cc2)nn1C(=O)c1c(F)cccc1F | IC50 [11]: 1.41 µM |
| 0.7 (≈ 1.42 µM) | 4.8 | 31.9 | 38 | 47 | > 100 | > 1000 | 0.071 | 9.6 | 20.2 | Nc1nc(Nc2ccc(S(=O)(=O)NC(=O)CCC(=O)O)cc2)nn1C(=O)c1c(F)cccc1F | Activity [12]: inactive |
| 6 (≈ 15.2 µM) | 4.8 | 0.284 |  |  | 0.254 |  |  | 9.6 | 0.447 | Nc1nc(Nc2ccc(S(N)(=O)=O)cc2)nn1C(=O)c1c(F)cccc1F [JNJ-7706621] | AUC [13]: 29.1 µM·h; AUC [14]: 1.4 µM·h; bioavailability [15]: 8%; AUC [16]: 7.62 µM·h; AUC [17]: 18 µM·h; AUC [18]: 3.67 µM·h; AUC [19]: 0.63 µM·h; inhibition in vivo at 100 mg/kg [20]: 95%; AUC [21]: 0.93 µM·h; bioavailability [22]: 2% |
| 14 (≈ 26.1 µM) | 4.8 | 20.9 | 7 | 20.5 | 50.8 | 4.7 (≈ 8.78 µM) | 0.118 | 9.6 | > 100 | Nc1nc(Nc2ccc(S(=O)(=O)NC(=O)CCN3CCOCC3)cc2)nn1C(=O)c1c(F)cccc1F |  |
| 5.4 (≈ 10.6 µM) | 4.8 | > 10 | 18 | 42.9 | > 10 | > 1000 | 0.247 | 9.6 | > 100 | COCCOCC(=O)NS(=O)(=O)c1ccc(Nc2nc(N)n(C(=O)c3c(F)cccc3F)n2)cc1 |  |
| 0.2 (≈ 0.383 µM) | 4.8 | 60.2 | 40 | 72.2 | 40.1 | 210 (≈ 402 µM) | 0.062 | 9.6 | > 10 | CCOC(=O)CCC(=O)NS(=O)(=O)c1ccc(Nc2nc(N)n(C(=O)c3c(F)cccc3F)n2)cc1 |  |
| 130 (≈ 288 µM) | 4.8 | 14.9 | 31 | 11.8 | 36.9 | 200 (≈ 443 µM) |  | 9.6 | 9.45 | NCC(=O)NS(=O)(=O)c1ccc(Nc2nc(N)n(C(=O)c3c(F)cccc3F)n2)cc1 |  |
